Reference: paper PMC11314366, “Unveiling the Catalytic Roles of DsBBS1 and DsBBS2 in the Bibenzyl Biosynthesis of Dendrobium sinense” (Molecules, 2024)

System: DsBBS2
Test: HPLC of resveratrol formed, nonlinear curve fitting
Format: biochemical, Dendrobium sinense
Details: 0.5 mM malonyl-CoA, 50 mM Hepes, 37 °C, 30 min; p-coumaroyl-CoA 0.5-5.0 mM

Km: 2050 ± 310 µM
Structure (SMILES): CC(C)(COP(=O)(O)OP(=O)(O)OC[C@H]1O[C@@H](n2cnc3c(N)ncnc32)[C@H](O)[C@@H]1OP(=O)(O)O)[C@@H](O)C(=O)NCCC(=O)NCCSC(=O)/C=C/c1ccc(O)cc1 [p-coumaroyl-CoA]
